This note sets out measurements from article PMC10447463, “Data-mining unveils structure–property–activity correlation of viral infectivity enhancing self-assembling peptides” (Nature Communications, 2023).

This series can be described thus: Aggregate analysis by widefield fluorescence microscopy. Format: physicochemical. Put shortly: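 First, each peptide (1 mg/mL in PBS, from DMSO stock) incubates 1 d at room temperature; next, it is mixed with 50 µM ThT to 0.1 mg/mL; finally, widefield images at 10x (ex 480/40, em 527/30 nm) are analysed by object counting for particles exceeding 10 µm^2, in triplicate.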

Where [1] appears, read: Fig S8 panels A, C, 3 fields of 1330 µm x 1330 µm.
Setting [2] is: Fig S8 panels B, D, average aggregate area, 3 fields of 1330 µm x 1330 µm.
Where [3] appears, read: Fig S8 panels B, D, median aggregate area, 3 fields of 1330 µm x 1330 µm.
The mark [4] stands for this setting: Fig S8 panels B, D, 3 fields of 1330 µm x 1330 µm.
The mark [5] stands for this setting: Fig S8 panels B, D, widefield fluorescence microscopy, 3 fields of 1330 µm x 1330 µm.

With CKWKWQW [KB4], where the note is “Fig S8 panels A, C”, the “Avg Area in 3 *(1330 µm *1330 µm)” value stood at 95.93, the “Log 10 Number of aggregates in 3 * (1330 µm *1330 µm)” value (shortened to “Log 10 Number of aggregates in 3 *”) is reported as 1.94, the “Median Area in 3 * (1330 µm *1330 µm)” value amounted to 29.43 and the “log Avg Area in 3 * ( (1330 µm *1330 µm))” value (from here on “log Avg Area in 3 *”) turned out to be 1.982. For the same substance, for the setting “Fig S8 panels A, C”, the “log Median Area in 3 * ( (1330 µm *1330 µm))” value (from here on “log Median Area in 3 *”) came to 1.469 and the “log Total Area of all particles in 3 * (1330 µm *1330 µm)” value (“log Total Area of all particles in 3 *” for short) worked out at 3.921. For the same substance, the “Number of aggregates in 3 * (1330 µm *1330 µm)” value under setting [1] was 87. Moreover, the “Avg Area in 3 *(1330 µm *1330 µm)” value under setting [2] was 95.93. For the same substance, the “Median Area in 3 * (1330 µm *1330 µm)” value under setting [3] stood at 29.43. Also, the “Total Area of all particles in 3 * (1330 µm *1330 µm)” value under setting [4] was determined as 8346. The “Number of aggregates in 3 * (1330 µm *1330 µm)” value under setting [5] stood at 87.

In the case of CQFQFQF [QBL4], where the note is “Fig S8 panels A, C”, the “Avg Area in 3 *(1330 µm *1330 µm)” value is listed as 73.07, the “Log 10 Number of aggregates in 3 *” value was determined as 1.6596, the “Median Area in 3 * (1330 µm *1330 µm)” value turned out to be 15.07 and the “log Avg Area in 3 *” value is 1.864. Further, under “Fig S8 panels A, C”, the “log Median Area in 3 *” value is 1.178 and the “log Total Area of all particles in 3 *” value is recorded as 3.523. Besides, the “Number of aggregates in 3 * (1330 µm *1330 µm)” value under setting [1] is 45.67. In addition, the “Avg Area in 3 *(1330 µm *1330 µm)” value under setting [2] is reported as 73.07. Moreover, under setting [3], the “Median Area in 3 * (1330 µm *1330 µm)” value was determined as 15.07. In addition, under setting [4], the “Total Area of all particles in 3 * (1330 µm *1330 µm)” value turned out to be 3337. Further, the “Number of aggregates in 3 * (1330 µm *1330 µm)” value under setting [5] was found to be 45.67.

In the case of CSISIQI [TM141], for the setting “Fig S8 panels A, C”, the “Avg Area in 3 *(1330 µm *1330 µm)” value is 112.5, the “Log 10 Number of aggregates in 3 *” value was 2.091, the “Median Area in 3 * (1330 µm *1330 µm)” value is listed as 18.872 and the “log Avg Area in 3 *” value is given as 2.051. Besides, for the setting “Fig S8 panels A, C”, the “log Median Area in 3 *” value is 1.276 and the “log Total Area of all particles in 3 *” value is 4.142. Moreover, the “Number of aggregates in 3 * (1330 µm *1330 µm)” value under setting [1] amounted to 123.3. For the same substance, the “Avg Area in 3 *(1330 µm *1330 µm)” value under setting [2] is listed as 112.5. Moreover, under setting [3], the “Median Area in 3 * (1330 µm *1330 µm)” value was determined as 18.872. The “Total Area of all particles in 3 * (1330 µm *1330 µm)” value under setting [4] is on record as 13871.26567. In addition, the “Number of aggregates in 3 * (1330 µm *1330 µm)” value under setting [5] was found to be 123.3.

With HHHHKIKIKIKIYYYY [TM6], under “Fig S8 panels A, C”, the “Avg Area in 3 *(1330 µm *1330 µm)” value was 71.63, the “Log 10 Number of aggregates in 3 *” value came to 2.1683, the “Median Area in 3 * (1330 µm *1330 µm)” value is given as 19.72 and the “log Avg Area in 3 *” value turned out to be 1.855. In addition, under “Fig S8 panels A, C”, the “log Median Area in 3 *” value was 1.295 and the “log Total Area of all particles in 3 *” value turned out to be 4.023. In addition, the “Number of aggregates in 3 * (1330 µm *1330 µm)” value under setting [1] is on record as 147.3. In addition, under setting [2], the “Avg Area in 3 *(1330 µm *1330 µm)” value is given as 71.63. The “Median Area in 3 * (1330 µm *1330 µm)” value under setting [3] came to 19.72. The “Total Area of all particles in 3 * (1330 µm *1330 µm)” value under setting [4] is on record as 10553.37833. Also, the “Number of aggregates in 3 * (1330 µm *1330 µm)” value under setting [5] is recorded as 147.3.

For the substance KFKFQFNMWQ [JG4], for the setting “Fig S8 panels A, C”, the “Avg Area in 3 *(1330 µm *1330 µm)” value amounted to 599.2, the “Log 10 Number of aggregates in 3 *” value is on record as 1.806, the “Median Area in 3 * (1330 µm *1330 µm)” value is listed as 25.773 and the “log Avg Area in 3 *” value came to 2.778. For the setting “Fig S8 panels A, C”, the “log Median Area in 3 *” value stood at 1.411 and the “log Total Area of all particles in 3 *” value amounted to 4.584. Under setting [1], the “Number of aggregates in 3 * (1330 µm *1330 µm)” value was 64. Further, under setting [2], the “Avg Area in 3 *(1330 µm *1330 µm)” value is recorded as 599.2. Further, under setting [3], the “Median Area in 3 * (1330 µm *1330 µm)” value worked out at 25.773. Further, under setting [4], the “Total Area of all particles in 3 * (1330 µm *1330 µm)” value amounted to 38349.21133. For the same substance, the “Number of aggregates in 3 * (1330 µm *1330 µm)” value under setting [5] is 64.

As for KIKIQIC [TM112 / CN11], where the note is “Fig S8 panels A, C”, the “Avg Area in 3 *(1330 µm *1330 µm)” value was found to be 23.45, the “Log 10 Number of aggregates in 3 *” value was determined as 1.912, the “Median Area in 3 * (1330 µm *1330 µm)” value is 12.96 and the “log Avg Area in 3 *” value is recorded as 1.37. For the same substance, under “Fig S8 panels A, C”, the “log Median Area in 3 *” value is reported as 1.1125 and the “log Total Area of all particles in 3 *” value is listed as 3.282. Moreover, the “Number of aggregates in 3 * (1330 µm *1330 µm)” value under setting [1] was found to be 81.67. Further, under setting [2], the “Avg Area in 3 *(1330 µm *1330 µm)” value is given as 23.45. For the same substance, the “Median Area in 3 * (1330 µm *1330 µm)” value under setting [3] came to 12.96. Besides, the “Total Area of all particles in 3 * (1330 µm *1330 µm)” value under setting [4] was determined as 1915.068. For the same substance, under setting [5], the “Number of aggregates in 3 * (1330 µm *1330 µm)” value is given as 81.67.

For KIKQIINMWQ [JG2], for the setting “Fig S8 panels A, C”, the “Avg Area in 3 *(1330 µm *1330 µm)” value was determined as 398.2, the “Log 10 Number of aggregates in 3 *” value is 1.591, the “Median Area in 3 * (1330 µm *1330 µm)” value worked out at 199.4905 and the “log Avg Area in 3 *” value is on record as 2.6. In addition, under “Fig S8 panels A, C”, the “log Median Area in 3 *” value was 2.3 and the “log Total Area of all particles in 3 *” value is recorded as 4.191. Besides, the “Number of aggregates in 3 * (1330 µm *1330 µm)” value under setting [1] turned out to be 39. For the same substance, under setting [2], the “Avg Area in 3 *(1330 µm *1330 µm)” value is recorded as 398.2. Besides, the “Median Area in 3 * (1330 µm *1330 µm)” value under setting [3] stood at 199.4905. In addition, under setting [4], the “Total Area of all particles in 3 * (1330 µm *1330 µm)” value was 15530.404. For the same substance, under setting [5], the “Number of aggregates in 3 * (1330 µm *1330 µm)” value is reported as 39.

Consider KWKWQW [KB3], for which, under “Fig S8 panels A, C”, the “Avg Area in 3 *(1330 µm *1330 µm)” value was found to be 112, the “Log 10 Number of aggregates in 3 *” value was determined as 1.442, the “Median Area in 3 * (1330 µm *1330 µm)” value is 41.405 and the “log Avg Area in 3 *” value is 2.049. For the same substance, where the note is “Fig S8 panels A, C”, the “log Median Area in 3 *” value is 1.617 and the “log Total Area of all particles in 3 *” value stood at 3.491. The “Number of aggregates in 3 * (1330 µm *1330 µm)” value under setting [1] is 27.67. The “Avg Area in 3 *(1330 µm *1330 µm)” value under setting [2] amounted to 112. Under setting [3], the “Median Area in 3 * (1330 µm *1330 µm)” value is reported as 41.405. The “Total Area of all particles in 3 * (1330 µm *1330 µm)” value under setting [4] is on record as 3098. Under setting [5], the “Number of aggregates in 3 * (1330 µm *1330 µm)” value is recorded as 27.67.

For the substance QCKAKAQA [CK24], the “Avg Area in 3 *(1330 µm *1330 µm)” value under setting [2] amounted to 0. Moreover, under setting [3], the “Median Area in 3 * (1330 µm *1330 µm)” value was found to be 0. Under setting [4], the “Total Area of all particles in 3 * (1330 µm *1330 µm)” value was found to be 0. Further, the “Number of aggregates in 3 * (1330 µm *1330 µm)” value under setting [5] was 0.

In the case of QCKFKQFFNMWQ [CK10], under setting [2], the “Avg Area in 3 *(1330 µm *1330 µm)” value is listed as 30.56. Besides, the “Median Area in 3 * (1330 µm *1330 µm)” value under setting [3] is 15.07. In addition, under setting [4], the “Total Area of all particles in 3 * (1330 µm *1330 µm)” value is listed as 55430.97933. Further, under setting [5], the “Number of aggregates in 3 * (1330 µm *1330 µm)” value is on record as 1814.

With QCKIKIQINMWQ [EF-C opt], under “Fig S8 panels A, C”, the “Avg Area in 3 *(1330 µm *1330 µm)” value was 21.24, the “Log 10 Number of aggregates in 3 *” value is listed as 2.6, the “Median Area in 3 * (1330 µm *1330 µm)” value came to 11.97 and the “log Avg Area in 3 *” value is reported as 1.327. Besides, where the note is “Fig S8 panels A, C”, the “log Median Area in 3 *” value was 1.078 and the “log Total Area of all particles in 3 *” value came to 3.927. Moreover, the “Number of aggregates in 3 * (1330 µm *1330 µm)” value under setting [1] is 398. The “Avg Area in 3 *(1330 µm *1330 µm)” value under setting [2] worked out at 21.24. Moreover, under setting [3], the “Median Area in 3 * (1330 µm *1330 µm)” value came to 11.97. For the same substance, the “Total Area of all particles in 3 * (1330 µm *1330 µm)” value under setting [4] was found to be 8454. Besides, the “Number of aggregates in 3 * (1330 µm *1330 µm)” value under setting [5] amounted to 398.
